Reference: patent US11498899B2, “Nitrone herbicides” (FMC Corporation, priority 2016, dated 2022)

Tests used:
[1] = tested on: ragweed (common ragweed, Ambrosia elatior); assay: Test A preemergence, visual injury rating 0-100; format: in vivo
[2] = tested on: ryegrass, Italian (Italian ryegrass, Lolium multiflorum); assay: Test A preemergence, visual injury rating 0-100; format: in vivo
[3] = tested on: pigweed (Amaranthus retroflexus); assay: Test A preemergence, visual injury rating 0-100; format: in vivo
[4] = tested on: foxtail, giant (giant foxtail, Setaria faberii); assay: Test A preemergence, visual injury rating 0-100; format: in vivo
[5] = tested on: kochia (Kochia scoparia); assay: Test A preemergence, visual injury rating 0-100; format: in vivo
[6] = tested on: barnyardgrass (Echinochloa crus-galli); assay: Test A preemergence, visual injury rating 0-100 (0 no effect, 100 complete control); format: in vivo
[7] = tested on: ducksalad (Heteranthera limosa); assay: Test B flooded paddy test, visual rating 0-100; settings: Flood, 250 g ai/ha, applied to paddy water, rated after 13 to 15 days
[8] = tested on: ragweed (common ragweed, Ambrosia elatior); assay: Test A postemergence, visual injury rating 0-100; format: in vivo; settings: 0 to 100 scale
[9] = tested on: barnyardgrass (Echinochloa crus-galli); assay: Test A postemergence, visual injury rating 0-100; format: in vivo; settings: 0 to 100 scale
[10] = tested on: wheat (Triticum aestivum); assay: Test A postemergence, visual injury rating 0-100; format: in vivo; settings: 0 to 100 scale
[11] = tested on: ryegrass, Italian (Italian ryegrass, Lolium multiflorum); assay: Test A postemergence, visual injury rating 0-100; format: in vivo; settings: 0 to 100 scale
[12] = tested on: pigweed (Amaranthus retroflexus); assay: Test A postemergence, visual injury rating 0-100; format: in vivo; settings: 0 to 100 scale
[13] = tested on: foxtail, giant (giant foxtail, Setaria faberii); assay: Test A postemergence, visual injury rating 0-100; format: in vivo; settings: 0 to 100 scale
[14] = tested on: kochia (Kochia scoparia); assay: Test A postemergence, visual injury rating 0-100; format: in vivo; settings: 0 to 100 scale
[15] = tested on: corn (Zea mays); assay: Test A postemergence, visual injury rating 0-100; format: in vivo; settings: 0 to 100 scale
[16] = tested on: galium (catchweed bedstraw, Galium aparine); assay: Test A postemergence, visual injury rating 0-100; format: in vivo; settings: 0 to 100 scale
[17] = tested on: blackgrass (Alopecurus myosuroides); assay: Test A postemergence, visual injury rating 0-100; format: in vivo; settings: 0 to 100 scale
[18] = tested on: rice (Oryza sativa); assay: Test B flooded paddy test, visual rating 0-100 (0 no effect, 100 complete control); settings: Flood, 250 g ai/ha, applied to paddy water, rated after 13 to 15 days
[19] = tested on: barnyardgrass (Echinochloa crus-galli); assay: Test B flooded paddy test, visual rating 0-100; settings: Flood, 250 g ai/ha, applied to paddy water, rated after 13 to 15 days

SMILES | Ragweed plant response rating (0 to 100 scale) ([1]; 125 g ai/ha) | Ragweed plant response rating (0 to 100 scale) ([1]; 500 g ai/ha) | Ryegrass, Italian plant response rating (0 to 100 scale) ([2]; 125 g ai/ha) | Ryegrass, Italian plant response rating (0 to 100 scale) ([2]; 500 g ai/ha) | Pigweed plant response rating (0 to 100 scale) ([3]; 125 g ai/ha) | Pigweed plant response rating (0 to 100 scale) ([3]; 500 g ai/ha) | Foxtail, Giant plant response rating (0 to 100 scale) ([4]; 125 g ai/ha) | Foxtail, Giant plant response rating (0 to 100 scale) ([4]; 500 g ai/ha) | Kochia plant response rating (0 to 100 scale) ([5]; 125 g ai/ha) | Kochia plant response rating (0 to 100 scale) ([5]; 500 g ai/ha) | Barnyardgrass plant response rating (0 to 100 scale) ([6]; 125 g ai/ha) | Barnyardgrass plant response rating (0 to 100 scale) ([6]; 500 g ai/ha) | Ducksalad plant response rating (0 to 100 scale) [7] | Ragweed plant response rating ([8]; 125 g ai/ha) | Ragweed plant response rating ([8]; 500 g ai/ha) | Barnyardgrass plant response rating ([9]; 125 g ai/ha) | Barnyardgrass plant response rating ([9]; 500 g ai/ha) | Wheat plant response rating ([10]; 125 g ai/ha) | Wheat plant response rating ([10]; 500 g ai/ha) | Ryegrass, Italian plant response rating ([11]; 125 g ai/ha) | other results
CC1=[N+]([O-])C(C(=O)Nc2cccc(F)c2F)C(c2ccc(F)cc2Oc2ncc(F)cn2)C1 (racemic) [Compound 68] | 0 | 70 | 20 | 90 | 0 | 0 | 50 | 100 | 0 | 30 | 20 | 100 | 0 | 0 | 0 | 0 | 40 | 30 | 80 | 20 | Ryegrass, Italian plant response rating ([11]; 500 g ai/ha): 90; Pigweed plant response rating ([12]; 125 g ai/ha): 0; Pigweed plant response rating ([12]; 500 g ai/ha): 30; Foxtail, Giant plant response rating ([13]; 125 g ai/ha): 0; Foxtail, Giant plant response rating ([13]; 500 g ai/ha): 90; Kochia plant response rating ([14]; 125 g ai/ha): 0; Kochia plant response rating ([14]; 500 g ai/ha): 30; Corn plant response rating ([15]; 125 g ai/ha): 20; Corn plant response rating ([15]; 500 g ai/ha): 90; Galium plant response rating ([16]; 125 g ai/ha): 30; Galium plant response rating ([16]; 500 g ai/ha): 40; Blackgrass plant response rating ([17]; 125 g ai/ha): 70; Blackgrass plant response rating ([17]; 500 g ai/ha): 70; Rice plant response rating (0 to 100 scale) [18]: 0; Barnyardgrass plant response rating (0 to 100 scale) [19]: 0
CC1=[N+]([O-])C(C(=O)Nc2cccc(F)c2F)C(c2ccc(C)c(Br)c2)C1 (racemic) [Compound 71] | 0 | 60 | 30 | 90 | 0 | 40 | 80 | 90 | 10 | 80 | 90 | 90 | 0 | 0 | 50 | 80 | 90 | 20 | 70 | 60 | Ryegrass, Italian plant response rating ([11]; 500 g ai/ha): 80; Pigweed plant response rating ([12]; 125 g ai/ha): 20; Pigweed plant response rating ([12]; 500 g ai/ha): 10; Foxtail, Giant plant response rating ([13]; 125 g ai/ha): 40; Foxtail, Giant plant response rating ([13]; 500 g ai/ha): 60; Kochia plant response rating ([14]; 125 g ai/ha): 10; Kochia plant response rating ([14]; 500 g ai/ha): 50; Corn plant response rating ([15]; 125 g ai/ha): 70; Corn plant response rating ([15]; 500 g ai/ha): 90; Galium plant response rating ([16]; 125 g ai/ha): 30; Galium plant response rating ([16]; 500 g ai/ha): 50; Blackgrass plant response rating ([17]; 125 g ai/ha): 40; Blackgrass plant response rating ([17]; 500 g ai/ha): 70; Rice plant response rating (0 to 100 scale) [18]: 0; Barnyardgrass plant response rating (0 to 100 scale) [19]: 0
CC1=[N+]([O-])C(C(=O)Nc2cccc(F)c2F)C(c2ccc(C)c(Cl)c2)C1 (racemic) [Compound 72] | 20 | 90 | 30 | 90 | 30 | 30 | 90 | 90 | 20 | 80 | 80 | 90 | 15 | 0 | 50 | 90 | 90 | 30 | 80 | 30 | Ryegrass, Italian plant response rating ([11]; 500 g ai/ha): 70; Pigweed plant response rating ([12]; 125 g ai/ha): 10; Pigweed plant response rating ([12]; 500 g ai/ha): 30; Foxtail, Giant plant response rating ([13]; 125 g ai/ha): 50; Foxtail, Giant plant response rating ([13]; 500 g ai/ha): 80; Kochia plant response rating ([14]; 125 g ai/ha): 0; Kochia plant response rating ([14]; 500 g ai/ha): 40; Corn plant response rating ([15]; 125 g ai/ha): 40; Corn plant response rating ([15]; 500 g ai/ha): 70; Galium plant response rating ([16]; 125 g ai/ha): 50; Galium plant response rating ([16]; 500 g ai/ha): 50; Blackgrass plant response rating ([17]; 125 g ai/ha): 60; Blackgrass plant response rating ([17]; 500 g ai/ha): 70; Rice plant response rating (0 to 100 scale) [18]: 0; Barnyardgrass plant response rating (0 to 100 scale) [19]: 40
CC1=[N+]([O-])C(C(=O)Nc2cccc(F)c2F)C(c2ccc(C(F)(F)F)c(Br)c2)C1 (racemic) [Compound 73] | 50 | 80 | 50 | 90 | 40 | 70 | 80 | 90 | 20 | 60 | 90 | 90 | 0 | 0 | 20 | 30 | 70 | 0 | 60 | 0 | Ryegrass, Italian plant response rating ([11]; 500 g ai/ha): 60; Pigweed plant response rating ([12]; 125 g ai/ha): 30; Pigweed plant response rating ([12]; 500 g ai/ha): 70; Foxtail, Giant plant response rating ([13]; 125 g ai/ha): 40; Foxtail, Giant plant response rating ([13]; 500 g ai/ha): 70; Kochia plant response rating ([14]; 125 g ai/ha): 10; Kochia plant response rating ([14]; 500 g ai/ha): 20; Corn plant response rating ([15]; 125 g ai/ha): 50; Corn plant response rating ([15]; 500 g ai/ha): 70; Galium plant response rating ([16]; 125 g ai/ha): 10; Galium plant response rating ([16]; 500 g ai/ha): 50; Blackgrass plant response rating ([17]; 125 g ai/ha): 40; Blackgrass plant response rating ([17]; 500 g ai/ha): 80; Rice plant response rating (0 to 100 scale) [18]: 0; Barnyardgrass plant response rating (0 to 100 scale) [19]: 0
COc1ccc(C2CC(C)=[N+]([O-])C2C(=O)Nc2cccc(F)c2F)cc1C(F)(F)F (racemic) [Compound 74] | 40 | 40 | 90 | 90 | 0 | 60 | 90 | 90 | 30 | 90 | 90 | 90 | 20 | 0 | 20 | 80 | 90 | 60 | 60 | 0 | Ryegrass, Italian plant response rating ([11]; 500 g ai/ha): 50; Pigweed plant response rating ([12]; 125 g ai/ha): 20; Pigweed plant response rating ([12]; 500 g ai/ha): 40; Foxtail, Giant plant response rating ([13]; 125 g ai/ha): 60; Foxtail, Giant plant response rating ([13]; 500 g ai/ha): 80; Kochia plant response rating ([14]; 125 g ai/ha): 0; Kochia plant response rating ([14]; 500 g ai/ha): 10; Corn plant response rating ([15]; 125 g ai/ha): 40; Corn plant response rating ([15]; 500 g ai/ha): 80; Galium plant response rating ([16]; 125 g ai/ha): 20; Galium plant response rating ([16]; 500 g ai/ha): 50; Blackgrass plant response rating ([17]; 125 g ai/ha): 70; Blackgrass plant response rating ([17]; 500 g ai/ha): 70; Rice plant response rating (0 to 100 scale) [18]: 0; Barnyardgrass plant response rating (0 to 100 scale) [19]: 45
